Measured values reported in US8883720B2, “Template-fixed beta-hairpin peptidomimetics with CXCR4 antagonizing activity” (Polyphor AG, priority 2008, dated 2014).
Numbered stars: 1 amine (or outer) side, 2 acyl side, 3 side chain; on linkers, the order of the positions; unused ones are H or OH. Bridge positions count the residues as written; N and C are the ends. Square brackets hold non-standard residues; d marks the D form. Peptide text beside a SMILES is read from it. Abu(3S-NH2) = C[C@H](N)[C@H](N)C(=O)O; Hpla = O=C(O)[C@@H](O)Cc1ccc(O)cc1; X1 = NCC[C@H](O[*:1])C(=O)[*:2]; Lac = C[C@H](O)C(=O)O

Columns and labels:
[1] = Plasma stability, human plasma; assay type: in vitro ADME; settings: 37° C., sampled up to 240 min; for half-life at 10 μM: read-out: Plasmastability human pl. T1/2
Experimental: (§1) The stability of the depsipeptides in human and mouse plasma was determined by applying the following method: 315 μL/deep well of freshly thawed human plasma (Basler Blutspende-dienst) and mouse plasma (Harlan Sera-Lab, UK), respectively, were spiked with 35 μL/well of compound in PBS (100 μM, triplicate) and incubated at 37° C. At t=0, 15, 30, 60, 120 and 240 min aliquots of 50 μL were transferred to filtration plate wells containing 150 μL/well of acetonitrile. Following shaking for 2 min the occurred suspensions were filtrated by vacuum and finally, 100 μL of each filtrate were transferred to a propylene microtiter plate, and analyzed by LC/MS as follows: Column: Waters, XBridge C18, mobile phases: (A) water+0.1% formic acid and (B) acetonitrile/water, 95/5 (v/v)+0.1% formic acid, gradient: 5%-100% (B) in 2 minutes, electrospray ionization, MRM detection (triple quadrupole). The peak areas were determined and triplicate values are averaged. The stability is expressed in percent of the initial value at t=0. (tx/t0×100). By using the TREND function of EXCEL (Microsoft Office 2003) T1/2 were determined.

[2] = Plasma stability, mouse plasma; assay type: in vitro ADME; settings: 37° C., sampled up to 240 min; for half-life at 10 μM: read-out: Plasmastability mouse pl. T1/2
Experimental: as §1

[3] = in vitro; assay type: cell-based
Experimental: The cytotoxicity of the depsipeptides to HELA cells (Acc57) and COS-7 cells (CRL-1651) was determined using the MTT reduction assay (T. Mossman, J. Immunol. Meth. 1983, 65, 55-63; M. V. Berridge, A. S. Tan, Arch. Biochem. Biophys. 1993, 303, 474-482). Briefly, the method was as follows: 7000 HELA cells/well and 4500 COS-7 cells/well were seeded and grown in 96-well microtiter plates for 24 h at 37° C. at 5% CO2. Thereafter, time zero (Tz) was determined by MTT reduction (see below). The supernatant of the remaining wells was discarded, and fresh medium and compounds in serial dilutions (12.5, 25 and 50 μM, triplicates) were pipetted into the wells. After incubation of the cells for 48 h at 37° C. at 5% CO2 the supernatant was discarded again and 100 μL MTT reagent (0.5 mg/mL in RPMI1640 and DMEM, respectively)/well was added. Following incubation at 37° C. for 2 h the media were aspirated and the cells were spiked (100 μL isopropanol/well). The absorbance of the solubilized formazan was measured at 595 nm (OD595peptide). For each concentration averages were calculated from triplicates. The percentage of growth was calculated as follows: (OD595peptide-OD595Tz-OD595Empty well)/(OD595Tz-OD595Empty well)×100%. The GI50 (Growth Inhibition) concentrations were calculated for each depsipeptide by using a trend line function for the concentrations (50, 25, 12.5 and 0 μM), the corresponding percentages and the value 50, (=TREND (C50:C0, %50:%0, 50).

[4] = target: T1, human CXCR4 (Homo sapiens, UniProt P61073); experiment: Ca2+-assay: CXCR4-antagonizing activity (SDF-1 induced calcium mobilization); assay type: cell-based; settings: mouse pre-B cell line 300-19 stably transfected with human CXCR4, read-out: IC50% [nM] ± SD, CXCR4 receptor
T1 construct: expressed in transfected cells; host or cells: mouse pre-B cell line 300-19
From the text: 2.3. Ca^2+-Assay: CXCR4-Antagonizing Activity of the Depsipeptides
Increases in intracellular calcium were monitored using a Flexstation 384 (Molecular Devices, Sunnyvale, Calif.) to assay the depsipeptides for CXCR4 antagonism in a mouse pre-B cell line 300-19 stably transfected with human CXCR4 (E. Oberlin, A. Amara, F. Bachelerie, C. Bessia, J.-L. Virelizier, F. Arenzana-Seisdedos, O. Schwartz, J.-M. Heard, I. Clark-Lewis, D. F. Legler, M. Loetscher, M. Baggiolini, B. Moser, Nature 1996, 382, 833-835; M. Loetscher, T. Geiser, T. O'Reilly, R. Zwalen, M. Baggiolini, B. Moser, J. Biol. Chem. 1994, 269, 232-237; M. D'Apuuo, A. Rolink, M. Loetscher, J. A. Hoxie, I. Clark-Lewis, F. Melchors, M. Baggiolini, B. Moser, Eur. J. Immunol. 1997, 27, 1788-1793). The cells were batch loaded with the Calcium 4 Assay kit (Molecular Devices) in assay buffer (Hanks Balanced salt solution [HBSS], 20 mM HEPES, pH 7.4, 0.1% BSA) for 1 h at room temperature and labeled cells were dispensed into black well assays plates (Costar No. 3603). Calcium mobilization induced by stromal-derived factor-1 (SDF-1) was measured in the Flexstation 384 (excitation: 485 nm; emission: 525 nm) for 90 seconds. Antagonist activity of depsipeptides was determined by spiking the cells with compounds prior to SDF-1 addition. Dose response curves (compound concentration versus % maximum response for SDF-1) were determined for each antagonist and IC50 values were calculated by fitting the data to a four parameter logistic equation using SoftmaxPro 4.8 (Molecular Devices).

[5] = tested on: human red blood cells (hRBC); assay type: cell-based; settings: red cells of human, 1 h
Experimental: 2.5. Hemolysis The depsipeptides were tested for their hemolytic activity against human red blood cells (hRBC). Fresh hRBC were washed three times with phosphate buffered saline (PBS) and centrifuged for 10 min at 2000×g. Compounds (100 μM) were incubated with 20% hRBC (v/v) for 1 h at 37° C. The final erythrocyte concentration was approximately 0.9×10^9 cells/mL. A value of 0% and 100% cell lyses, respectively, was determined by incubation of hRBC in the presence of PBS alone and 0.1% Triton X-100 in H2O, respectively. The samples were centrifuged, the supernatants were 20-fold diluted in PBS buffer and the optical densities (OD) were measured at 540 nm. The 100% lyses value (OD540H2O) gave an OD540 of approximately 1.3-1.8. Percent hemolysis was calculated as follows: (OD540peptide/OD540H2O)×100%.

T1 sequence (P61073 whole entry): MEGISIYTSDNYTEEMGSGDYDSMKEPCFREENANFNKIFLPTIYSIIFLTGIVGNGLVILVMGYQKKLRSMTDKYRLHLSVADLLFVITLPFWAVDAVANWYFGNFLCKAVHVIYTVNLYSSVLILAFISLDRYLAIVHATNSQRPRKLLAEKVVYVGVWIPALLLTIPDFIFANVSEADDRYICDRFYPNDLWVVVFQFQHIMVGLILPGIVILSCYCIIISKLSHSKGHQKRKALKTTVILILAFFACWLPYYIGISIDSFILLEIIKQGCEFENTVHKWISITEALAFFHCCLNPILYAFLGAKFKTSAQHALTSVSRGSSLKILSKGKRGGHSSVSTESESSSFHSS

Plasmastability human pl. T1/2 [1] [min]	Plasmastability mouse pl. T1/2 [2] [min]	GI50 at 48 h ([3]; African green monkey) [µM]	GI50 at 48 h ([3]; human) [µM]	IC50 [4] [nM]	half-life at 10 μM [1] [min]	half-life at 10 μM [2] [min]	SMILES	Hemolysis at 100 μM [5] [%]
		> 50	> 50	20.8 ± 8.3	85	74	C[C@@H]1NC(=O)[C@H](CCCNC(=N)N)NC(=O)[C@@H]2CSSC[C@H](NC(=O)[C@H](Cc3ccc(O)cc3)NC(=O)[C@H](CCCNC(=N)N)NC(=O)[C@H]([C@H](C)N)NC(=O)[C@H]3CCCN3C1=O)C(=O)N[C@@H](Cc1ccc(O)cc1)C(=O)N[C@@H](CCC(N)=O)C(=O)N[C@@H](CCCCN)C(=O)N1CCC[C@@H]1C(=O)N1CCC[C@H]1C(=O)N[C@@H](Cc1ccc(O)cc1)C(=O)N[C@@H](Cc1c[nH]cn1)C(=O)O[C@@H](C)C(=O)N2 [Example 9] (cyclo(YH[Lac]CRA[dP][Abu(3S-NH2)]RYCYQK[dP]P); disulfide 4-11)	0.4
		> 50	> 50	16.6 ± 1.5	5.1	5.3	C[C@@H]1NC(=O)[C@H](Cc2c[nH]cn2)NC(=O)[C@H](Cc2ccc(O)cc2)NC(=O)[C@@H]2CCCN2C(=O)[C@H]2CCCN2C(=O)[C@H](CCN)OC(=O)[C@@H](CCC(N)=O)NC(=O)[C@H](Cc2ccc(O)cc2)NC(=O)[C@@H]2CSSC[C@H](NC1=O)C(=O)N[C@@H](CCCNC(=N)N)C(=O)N[C@@H](C)C(=O)N1CCC[C@@H]1C(=O)N[C@@H]([C@H](C)N)C(=O)N[C@@H](CCCNC(=N)N)C(=O)N[C@@H](Cc1ccc(O)cc1)C(=O)N2 [Example 10] (cyclo(YHACRA[dP][Abu(3S-NH2)]RYCY[dQ][X1][dP]P); disulfide 4-11)	0.3

Continued, compound first:

SMILES	Plasmastability human pl. T1/2 [1] [min]	Plasmastability mouse pl. T1/2 [2] [min]	GI50 at 48 h ([3]; African green monkey) [µM]	GI50 at 48 h ([3]; human) [µM]	IC50 [4] [nM]	half-life at 10 μM [1] [min]	half-life at 10 μM [2] [min]	Hemolysis at 100 μM [5] [%]
C[C@@H]1NC(=O)[C@H](Cc2c[nH]cn2)NC(=O)[C@H](Cc2ccc(O)cc2)OC(=O)[C@@H]2CCCN2C(=O)[C@H]2CCCN2C(=O)[C@H](CCCCN)NC(=O)[C@H](CCC(N)=O)NC(=O)[C@H](Cc2ccc(O)cc2)NC(=O)[C@@H]2CSSC[C@H](NC1=O)C(=O)N[C@@H](CO)C(=O)N[C@@H](C)C(=O)N1CCC[C@@H]1C(=O)N[C@@H]([C@H](C)N)C(=O)N[C@@H](CCCNC(=N)N)C(=O)N[C@@H](Cc1ccc(O)cc1)C(=O)N2 [Example 5] (cyclo([Hpla]HACSA[dP][Abu(3S-NH2)]RYCYQK[dP]P); disulfide 4-11)	> 240	> 240	> 50	> 50	3.3 ± 1.1			1.5
C[C@@H]1NC(=O)[C@H](CCN)OC(=O)[C@H](Cc2ccc(O)cc2)NC(=O)[C@@H]2CCCN2C(=O)[C@H]2CCCN2C(=O)[C@H](CCCCN)NC(=O)[C@H](CCC(N)=O)NC(=O)[C@H](Cc2ccc(O)cc2)NC(=O)[C@@H]2CSSC[C@H](NC1=O)C(=O)N[C@@H](CO)C(=O)N[C@@H](C)C(=O)N1CCC[C@@H]1C(=O)N[C@@H]([C@H](C)N)C(=O)N[C@@H](CCCNC(=N)N)C(=O)N[C@@H](Cc1ccc(O)cc1)C(=O)N2 [Example 6] (cyclo(Y[X1]ACSA[dP][Abu(3S-NH2)]RYCYQK[dP]P); disulfide 4-11)			> 50	> 50	13.5 ± 5	4.2	4.3	1.0
C[C@@H]1NC(=O)[C@H](Cc2c[nH]cn2)NC(=O)[C@H](Cc2ccc(O)cc2)NC(=O)[C@@H]2CCCN2C(=O)[C@H]2CCCN2C(=O)[C@H](CCCCN)NC(=O)[C@H](CCC(N)=O)NC(=O)[C@H](Cc2ccc(O)cc2)NC(=O)[C@@H]2CSSC[C@H](NC1=O)C(=O)N[C@H](CO)C(=O)O[C@@H](C)C(=O)N1CCC[C@@H]1C(=O)N[C@@H]([C@H](C)N)C(=O)N[C@@H](CCCNC(=N)N)C(=O)N[C@@H](Cc1ccc(O)cc1)C(=O)N2 [Example 7] (cyclo(YHAC[dS][Lac][dP][Abu(3S-NH2)]RYCYQK[dP]P); disulfide 4-11)			> 50	> 50	2.1 ± 0.5	62	51	0.2
